Measured values reported in patent US5079157A, “Novel choline oxidase and method for producing the same” (priority 1988, dated 1992).
Read-outs that look alike come from different tables or passages of the source.

Columns and labels:
[1] = tested on: choline oxidase; format: biochemical
Method: (§1) Enzymatic activity (U/ml)=ΔA/min.×10.17×dilution ratio
Various substances were added to the reaction mixture to be used for the determination of enzymatic activity as described in the above (2) and the inhibitory effects were examined.

[2] = tested on: choline oxidase; assay: Substrate specificity of choline oxidase (authentic sample of Example 1); format: biochemical, Streptomyces thermoluteus subsp. fuscus C-19; conditions: substrate used in place of choline chloride; relative to choline; enzyme of Example 1; Tris-HCl pH 8.0, 37° C
Method: as §1
According to the above determination method of enzymatic activity, various substrates shown in Table 2 were used in place of choline chloride in the reaction mixture, their relative activities to choline were determined. As the enzyme, the authentic sample obtained in Example 1 hereinafter was employed.

[3] = biological target: T1, choline oxidase (authentic sample S) (Saccharopolyspora hirsuta, UniProt A0A5M7BLR6); conditions: authentic sample S (Example 11)
T1 sequence (A0A5M7BLR6 1-515): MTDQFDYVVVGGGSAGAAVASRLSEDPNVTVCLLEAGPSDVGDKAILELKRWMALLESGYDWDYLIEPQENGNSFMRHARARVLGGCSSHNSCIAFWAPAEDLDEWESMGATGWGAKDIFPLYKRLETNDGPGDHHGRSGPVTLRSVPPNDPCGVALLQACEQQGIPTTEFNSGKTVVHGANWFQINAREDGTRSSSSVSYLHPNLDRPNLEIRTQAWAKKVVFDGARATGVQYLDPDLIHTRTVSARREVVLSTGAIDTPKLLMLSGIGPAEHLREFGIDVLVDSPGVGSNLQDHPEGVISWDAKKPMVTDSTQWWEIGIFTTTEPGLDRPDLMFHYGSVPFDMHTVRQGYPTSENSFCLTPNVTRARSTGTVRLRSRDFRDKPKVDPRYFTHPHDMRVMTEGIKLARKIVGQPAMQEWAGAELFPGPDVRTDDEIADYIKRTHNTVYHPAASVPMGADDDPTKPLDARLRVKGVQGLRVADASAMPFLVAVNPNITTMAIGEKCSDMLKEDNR
Method: (§2) A peroxidase (obtained from horse radish, 100 units/mg, Type I, Sigma Chemical Co., U.S.A.) is dissolved in the above mixture to obtain a reaction mixture. The reaction mixture (3.0 ml) is placed in a cuvette (d=1.0 cm) and subjected to pre-heating at 37° C. for 5 minutes. Then, the changes of absorbance at 500 nm at 37° C. are recorded by an autographic recording spectrophotometer (UV-260 Type, Shimadzu Seisakusho, Ltd.) and the changes of absorbance per minute (ΔA/min.) from the initial straight line portion are determined. The enzymatic activity is calculated by the following formula:

[4] = tested on: choline oxidase (authentic sample T); conditions: authentic sample T (Example 10)
Method: as §2

[5] = additive 5 mM, without addition = 100
[6] = additive 1.0 mM, without addition = 100

In the case of `[Ba+2].[Cl-].[Cl-]` [BaCl2], the “Relative Activity (%)” value [1, 5] is reported as 100%.

`C[N+](C)(C)CC=O` [Betaine aldehyde] was tested, and the “Relative Activity (%)” value [2] was 41.9%, the “reactivity of the enzyme to the substrate” value [3] was “showed reactivity” and the “reactivity of the enzyme to the substrate” value [4] was “showed reactivity”.

With `[Ca+2].[Cl-].[Cl-]` [CaCl2] the “Relative Activity (%)” value [1, 5] was 100%.

`[Cl-].[Cl-].[Co+2]` [CoCl2] was tested, and the “Relative Activity (%)” value [1, 5] was 36.9%.

With `OCCNCCO` [Diethanolamine] the “Relative Activity (%)” value [2] was 0%.

`[Cl][Hg][Cl]` [HgCl2] was tested, and the “Relative Activity (%)” value ([1]; additive 0.05 mM, without addition = 100) was 83.3%, the “Relative Activity (%)” value ([1]; additive 0.5 mM, without addition = 100) was 60.1% and the “Relative Activity (%)” value [1, 6] was 50.0%.

In the case of `[Cl-].[K+]` [KCl], the “Relative Activity (%)” value [1, 5] is reported as 98.0%.

`[Cl-].[Li+]` [LiCl] was tested, and the “Relative Activity (%)” value [1, 5] was 100%.

With `[Cl-].[Cl-].[Mg+2]` [MgCl2] the “Relative Activity (%)” value [1, 5] was 93.8%.

For `[Cl][Mn][Cl]` [MnCl2], the “Relative Activity (%)” value [1, 5] was 100%.

For `[Cl][Mo]([Cl])([Cl])([Cl])[Cl]` [MoCl5], the “Relative Activity (%)” value [1, 6] was 18.1%.

For `NCCO` [Monoethanolamine], the “Relative Activity (%)” value [2] was 0%.

In the case of `CNCCO` [N-methylaminoethanol], the “Relative Activity (%)” value [2] is reported as 0%.

For `Cl.N` [NH4 Cl], the “Relative Activity (%)” value [1, 5] was 100%.

In the case of `[Cl-].[Na+]` [NaCl], the “Relative Activity (%)” value [1] is reported as 100%.

`[Cl-].[Cl-].[Zn+2]` [ZnCl2] was tested, and the “Relative Activity (%)” value [1, 5] was 82.9%.
